Results published in ChEMBL document CHEMBL1201862, “PubChem BioAssay data set” (2004).
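Five compound concentrations were applied to cells in 96-well plates for 48 hours; endpoints were derived by simple linear interpolation of the resulting dose-response curve. GI50: concentration for 50% inhibition of growth.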 Active and inactive are the calls of the source. Cut-off read from the data, not from the text of the source: active = GI50 up to about 1.1 µM and inactive = higher.

How the values were obtained:
Assay in all cases: growth of human tumour cells (NCI), 48 h
A498 = system: A498
A549 = system: A549
ACHN = system: ACHN
COLO 205 = system: COLO 205
DU-145 = system: DU-145
EKVX = system: EKVX
HCT-116 = system: HCT-116
HOP-62 = system: HOP-62
LOX IMVI = system: LOX IMVI
M14 = system: M14
MDA-MB-231 = system: MDA-MB-231
RXF 393 = system: RXF 393
SF-539 = system: SF-539
SK-MEL-2 = system: SK-MEL-2
SNB-75 = system: SNB-75
T47D = system: T47D
UACC-257 = system: UACC-257
UACC-62 = system: UACC-62
UO-31 = system: UO-31

Measured: GI50

CC[n+]1cnc(N)c2c(-c3ccc(Cl)cc3)cn(-c3ccc(C)cc3)c21
inactive: A498 11.4 µM | A549 12.7 µM | ACHN 12.9 µM | COLO 205 3.78 µM | DU-145 17.9 µM | EKVX 14.8 µM | HCT-116 9.4 µM | HOP-62 16.8 µM | LOX IMVI 11.4 µM | M14 1.94 µM | MDA-MB-231 17 µM | RXF 393 3.05 µM | SF-539 14.6 µM | SK-MEL-2 18.7 µM | SNB-75 3.56 µM | T47D 12 µM | UACC-257 2.82 µM | UACC-62 11.4 µM | UO-31 9.93 µM

Cc1nn(-c2cc(Cl)ccc2[N+](=O)[O-])c(C)c1Cl
inactive: A498 > 100 µM | A549 71.1 µM | ACHN > 100 µM | COLO 205 > 100 µM | DU-145 > 100 µM | EKVX 76 µM | HCT-116 53.8 µM | HOP-62 > 100 µM | LOX IMVI > 100 µM | M14 > 100 µM | MDA-MB-231 48 µM | RXF 393 2.72 µM | SF-539 > 100 µM | SK-MEL-2 > 100 µM | SNB-75 86.5 µM | T47D 38.2 µM | UACC-257 > 100 µM | UACC-62 > 100 µM | UO-31 20.8 µM

C[C@H]1COC2=C1C(=O)C(=O)c1c2ccc2c1CCCC2(C)C [CRYPTOTANSHINONE]
active: A549 1.05 µM | M14 1.03 µM | SNB-75 0.881 µM
inactive: A498 18.3 µM | ACHN 3.6 µM | COLO 205 1.15 µM | DU-145 1.35 µM | EKVX 4.62 µM | HCT-116 2.96 µM | HOP-62 3.68 µM | LOX IMVI 2.52 µM | MDA-MB-231 12 µM | RXF 393 6.3 µM | SF-539 3.35 µM | SK-MEL-2 4.25 µM | T47D 9.46 µM | UACC-257 1.95 µM | UACC-62 2.03 µM | UO-31 4.7 µM

C=C1C(=O)O[C@H]2[C@@H]3O[C@@](C)(CC/C=C(\C)CCC[C@@H]2C)[C@H](O)C[C@@H]13
inactive: A498 25.1 µM | A549 6.79 µM | ACHN 1.98 µM | COLO 205 2.42 µM | DU-145 6.5 µM | EKVX 22.9 µM | HCT-116 3.66 µM | HOP-62 10.5 µM | LOX IMVI 2.86 µM | M14 1.95 µM | MDA-MB-231 5.3 µM | RXF 393 3.94 µM | SF-539 2.14 µM | SK-MEL-2 11.8 µM | SNB-75 16.4 µM | T47D 3.58 µM | UACC-257 10 µM | UACC-62 3.73 µM | UO-31 2.87 µM

Nc1cc2c3c(cccc3c1)C(=O)N(c1ccc(OCCN3CCCCC3)cc1)C2=O
inactive: A498 16 µM | A549 13.9 µM | ACHN 15.9 µM | COLO 205 13.4 µM | DU-145 16.9 µM | EKVX 20.4 µM | HCT-116 11.3 µM | HOP-62 15.8 µM | LOX IMVI 14 µM | M14 15.5 µM | MDA-MB-231 14.2 µM | RXF 393 16.7 µM | SF-539 14 µM | SK-MEL-2 17.2 µM | SNB-75 14.6 µM | T47D 20.4 µM | UACC-257 16 µM | UACC-62 19.1 µM | UO-31 9.73 µM

CC(=O)Oc1ccc2c(c1)c1c(=O)oc(C)nc1n2Cc1ccccc1
inactive: A498 23.4 µM | A549 67.5 µM | ACHN 28.7 µM | COLO 205 24.6 µM | DU-145 > 55.7 µM | EKVX > 53.5 µM | HCT-116 40.5 µM | HOP-62 32.7 µM | LOX IMVI 32 µM | M14 40.3 µM | MDA-MB-231 33.7 µM | RXF 393 14.8 µM | SF-539 27.5 µM | SK-MEL-2 19.2 µM | SNB-75 > 41.8 µM | T47D 33.5 µM | UACC-257 > 100 µM | UACC-62 16.3 µM | UO-31 2.79 µM

COc1cc(C(=O)CBr)c(OC)cc1C
inactive: A498 84.7 µM | A549 > 100 µM | ACHN > 100 µM | COLO 205 > 100 µM | DU-145 > 100 µM | EKVX > 100 µM | HCT-116 > 100 µM | HOP-62 > 100 µM | LOX IMVI > 100 µM | M14 > 100 µM | MDA-MB-231 > 100 µM | RXF 393 > 100 µM | SF-539 > 100 µM | SK-MEL-2 > 100 µM | SNB-75 > 10 µM | T47D > 100 µM | UACC-257 > 100 µM | UACC-62 85.7 µM | UO-31 97.3 µM

C=C(CO)C(=O)OC1CC(=C)C2CC(O)C(C)C2C2OC(=O)C(=C)C12 (stereo unspecified)
inactive: A498 39.6 µM | A549 28.8 µM | ACHN 18.4 µM | COLO 205 34.2 µM | DU-145 42.5 µM | EKVX 40.9 µM | HCT-116 33.2 µM | HOP-62 19.4 µM | LOX IMVI 29.9 µM | M14 17.3 µM | MDA-MB-231 20 µM | RXF 393 20 µM | SF-539 18 µM | SK-MEL-2 16.1 µM | SNB-75 19 µM | T47D 49.4 µM | UACC-257 15.6 µM | UACC-62 16.6 µM | UO-31 16.2 µM

O=C(NNC(=S)NC1CCCCC1)C12CC3CC(CC(C3)C1)C2
inactive: A498 > 100 µM | A549 > 100 µM | ACHN > 100 µM | COLO 205 > 100 µM | DU-145 > 100 µM | HCT-116 > 100 µM | HOP-62 > 100 µM | LOX IMVI > 100 µM | M14 > 100 µM | MDA-MB-231 > 100 µM | RXF 393 > 100 µM | SF-539 > 100 µM | SK-MEL-2 > 100 µM | SNB-75 52.2 µM | T47D > 100 µM | UACC-257 > 100 µM | UACC-62 > 100 µM | UO-31 > 100 µM

COc1cc2c3c4c1OCc1c5c(cc(c1-4)CC3[N+](C)(C)CC2)OCO5 (stereo unspecified)
inactive: A498 > 100 µM | A549 > 100 µM | ACHN > 100 µM | COLO 205 > 100 µM | DU-145 > 100 µM | EKVX > 100 µM | HCT-116 > 100 µM | HOP-62 31.1 µM | LOX IMVI > 100 µM | M14 > 100 µM | MDA-MB-231 > 100 µM | RXF 393 > 100 µM | SF-539 11.2 µM | SK-MEL-2 > 100 µM | SNB-75 26.7 µM | T47D > 100 µM | UACC-257 > 100 µM | UACC-62 > 100 µM | UO-31 > 100 µM

Nc1cccc(S(=O)(=O)Nc2nnc(S(N)(=O)=O)s2)c1
inactive: A498 > 100 µM | A549 > 100 µM | ACHN > 100 µM | COLO 205 > 100 µM | DU-145 > 100 µM | EKVX > 100 µM | HCT-116 > 100 µM | HOP-62 > 100 µM | LOX IMVI > 100 µM | M14 > 100 µM | MDA-MB-231 > 100 µM | RXF 393 > 100 µM | SF-539 > 100 µM | SK-MEL-2 > 100 µM | SNB-75 > 100 µM | T47D > 100 µM | UACC-62 > 100 µM | UO-31 > 100 µM

Cc1ccccc1OC(C)C(=O)NN1C(=O)CC(=O)N(c2ccc(Cl)cc2)C1=S (stereo unspecified)
inactive: A498 20.7 µM | A549 43.9 µM | ACHN 33.8 µM | COLO 205 23.3 µM | DU-145 36.1 µM | EKVX 41.7 µM | HCT-116 22.2 µM | HOP-62 47.9 µM | LOX IMVI 29 µM | M14 44.8 µM | MDA-MB-231 26 µM | RXF 393 25 µM | SF-539 46.1 µM | SK-MEL-2 27.8 µM | SNB-75 35 µM | T47D 34.6 µM | UACC-257 30 µM | UACC-62 27.9 µM | UO-31 41 µM

NC(=O)CSc1nc2ccccc2c(=O)n1N
inactive: A498 > 100 µM | A549 > 100 µM | ACHN > 100 µM | COLO 205 > 100 µM | DU-145 > 100 µM | EKVX > 100 µM | HCT-116 > 100 µM | LOX IMVI > 100 µM | M14 > 100 µM | MDA-MB-231 > 100 µM | RXF 393 > 100 µM | SF-539 > 100 µM | SK-MEL-2 > 100 µM | SNB-75 > 100 µM | T47D > 100 µM | UACC-257 > 100 µM | UACC-62 > 100 µM | UO-31 > 100 µM

COc1cc2c(cc1O)CCN(C)[C@H]2Cc1ccc(Oc2c(O)c(OC)cc3c2C[C@H]2c4c(c(OC)c(OC)c(OC)c4-3)CCN2C)cc1 [THALIFABERIDINE]
inactive: A498 7.41 µM | A549 4.94 µM | ACHN 5.71 µM | COLO 205 7.08 µM | DU-145 6.34 µM | EKVX 5.92 µM | HCT-116 2.99 µM | HOP-62 6.01 µM | LOX IMVI 1.72 µM | M14 5.4 µM | MDA-MB-231 3.04 µM | RXF 393 1.75 µM | SF-539 5.9 µM | SK-MEL-2 6.82 µM | SNB-75 4.51 µM | T47D 6.05 µM | UACC-257 7.01 µM | UACC-62 3.97 µM | UO-31 4.98 µM

O=C1OC(c2ccc([N+](=O)[O-])cc2)=N/C1=C\c1ccc(Cl)cc1
inactive: A498 > 100 µM | A549 > 100 µM | ACHN > 100 µM | COLO 205 > 100 µM | DU-145 > 100 µM | EKVX > 100 µM | HCT-116 > 100 µM | HOP-62 > 100 µM | LOX IMVI > 100 µM | M14 > 100 µM | MDA-MB-231 > 100 µM | RXF 393 62.8 µM | SF-539 > 100 µM | SK-MEL-2 > 100 µM | SNB-75 > 100 µM | T47D > 100 µM | UACC-257 > 100 µM | UACC-62 > 100 µM
